For assay [1], the target named is T1, enoyl-CoA hydratase short chain 1 (ECHS1) (Homo sapiens, UniProt P30084).
T1 construct: recombinant, purified from E. coli, purchased from Novus Biologicals; homohexamer
T1 sequence (P30084 28-290): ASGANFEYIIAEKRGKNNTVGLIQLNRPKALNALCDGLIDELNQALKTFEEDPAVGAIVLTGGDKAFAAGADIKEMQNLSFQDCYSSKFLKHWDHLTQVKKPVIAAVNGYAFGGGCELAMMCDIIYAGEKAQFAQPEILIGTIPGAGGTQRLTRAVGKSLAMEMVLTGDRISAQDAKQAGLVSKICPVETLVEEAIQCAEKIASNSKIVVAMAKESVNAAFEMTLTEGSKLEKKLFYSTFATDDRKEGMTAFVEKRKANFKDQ
The assay is described as follows: LC-MS/MS (DIA) of site-specific lysine succinylation, dose-response. Format: biochemical.

In assay [2] the target is T1, enoyl-CoA hydratase short chain 1 (ECHS1). The assay is described as follows: LC-MS/MS of lysine acetylation. It counts as binding. The conditions noted are these: covalent (lysine acetylation at K282, K284, K204 near the CoA pocket).

Structures are written as SMILES.

In general, IC50 refers to the concentration that inhibits the measured activity by half. With `CC(C)(COP(=O)(O)OP(=O)(O)OC[C@H]1O[C@@H](n2cnc3c(N)ncnc32)[C@H](O)[C@@H]1OP(=O)(O)O)[C@@H](O)C(=O)NCCC(=O)NCCS` [CoA], the IC50 in assay [1] lay within 331 to 1920 µM. Take `CC(=O)SCCNC(=O)CCNC(=O)[C@H](O)C(C)(C)COP(=O)(O)OP(=O)(O)OC[C@H]1O[C@@H](n2cnc3c(N)ncnc32)[C@H](O)[C@@H]1OP(=O)(O)O` [acetyl-CoA]: the “LC-MS/MS of lysine acetylation” value in assay [2] was “in ECHS1 induced by acetyl-CoA incubation was inhibited by a 25-molar excess of CoA”.

Source of the values: PMC10050154, “Coenzyme A binding sites induce proximal acylation across protein families” (Scientific Reports, 2023).
